Source: patent US20050096254A1, “Peptide deformylase activated prodrugs” (priority 2002, published 2005)
In brackets after ≈: the same amount, converted by molar mass.

Legend:
Format in all cases: cell-based
S. epidermidis = experiment: MIC susceptibility testing (modified NCCLS)
Description: (§1) The NCCLS (National Committee for Clinical Laboratory Standards), method to determine MIC's of antimicrobial compounds is modified for high-throughput screening. All stocks of tested compounds are prepared in either water or in DMSO depending on solubility. At the highest concentration, DMSO content should not exceed 0.5%. Briefly, twenty 2-fold serial dilutions of test compounds from the highest concentration is made in a 384-well microtiter plate. Each well is inoculated with testing bacteria in broth to a final concentration of approximately 1-1.5×10^6 cells/ml. Bacterial growth is determined by the increase of optical density at 600 nm using a microplate reader (Tecan SpectraFluor Plus).

S. aureus = experiment: MIC susceptibility testing (modified NCCLS)
Description: as §1

E. faecalis = experiment: MIC susceptibility testing (modified NCCLS)
Description: as §1

E. coli = experiment: MIC susceptibility testing (modified NCCLS); settings: Table 4, E. coli
Description: as §1

M. catarrhalis = experiment: MIC susceptibility testing (modified NCCLS)
Description: as §1

H. influenzae = experiment: MIC susceptibility testing (modified NCCLS)
Description: as §1

K. pneumoniae = experiment: MIC susceptibility testing (modified NCCLS)
Description: as §1

E. cloacae = experiment: MIC susceptibility testing (modified NCCLS)
Description: as §1

E. aerogenes = experiment: MIC susceptibility testing (modified NCCLS)
Description: as §1

Mammalian cells = experiment: Toxicity to mammalian cells; settings: after 16 hours of exposure
Description: Mammalian cells were treated with Compound #2 as described above.

E. coli/Tem-1 = experiment: MIC susceptibility testing (modified NCCLS); settings: Table 4, E. coli expressing TEM-1 beta-lactamase
Description: as §1, with “Plus). The MIC is defined as the lowest concentration at which bacterial growth (equivalent to visible growth) was inhibited after 16 to 18 hours of incubation at the appropriate temperature required for the bacteria growth.” for “Plus).”
E. coli/TEM—E. coli expressing TEM-1 beta-lactamase; MRSA—Methicillin Resistant S. Aureus; MSSA—Methicillin Sensitive S. Aureus.

CSCC[C@H](NC=O)C(=O)N[C@@H](CC(C)C)C(=O)Oc1cc(Cl)ccc1Oc1ccc(Cl)cc1Cl [Compound #2]
MIC (S. epidermidis; Table 3, S. epidermidis ATCC 27626, Exp. #1): ≦0.125 μg/ml | MIC (S. epidermidis; Table 3, S. epidermidis ATCC 27626, Exp. #2): ≦0.125 μg/ml | MIC (S. epidermidis; Table 3, S. epidermidis ATCC 700565, Exp. #1): 2 µg/mL (≈ 3.56 µM) | MIC (S. epidermidis; Table 3, S. epidermidis ATCC 700565, Exp. #2): 2 µg/mL (≈ 3.56 µM) | MIC (S. epidermidis; Table 3, S. epidermidis ATCC 700566, Exp. #1): ≦0.125 μg/ml | MIC (S. epidermidis; Table 3, S. epidermidis ATCC 700566, Exp. #2): ≦0.125 μg/ml | MIC (S. epidermidis; Table 3, S. epidermidis ATCC 700578, Exp. #1): 0.5 µg/mL (≈ 0.89 µM) | MIC (S. epidermidis; Table 3, S. epidermidis ATCC 700578, Exp. #2): 0.25 µg/mL (≈ 0.445 µM) | MIC (S. epidermidis; Table 3, S. epidermidis ATCC 700583, Exp. #1): ≦0.125 μg/ml | MIC (S. epidermidis; Table 3, S. epidermidis ATCC 700583, Exp. #2): ≦0.125 μg/ml | MIC (S. aureus; Table 3, S. aureus ATCC 11632, Exp. #1): ≦0.125 μg/ml | MIC (S. aureus; Table 3, S. aureus ATCC 11632, Exp. #2): ≦0.125 μg/ml | MIC (S. aureus; Table 3, S. aureus ATCC 13301, Exp. #1): ≦0.125 μg/ml | MIC (S. aureus; Table 3, S. aureus ATCC 13301, Exp. #2): ≦0.125 μg/ml | MIC (S. aureus; Table 3, S. aureus ATCC 14154, Exp. #1): ≦0.125 μg/ml | MIC (S. aureus; Table 3, S. aureus ATCC 14154, Exp. #2): ≦0.125 μg/ml | MIC (S. aureus; Table 3, S. aureus ATCC 33591, Exp. #1): ≦0.125 μg/ml | MIC (S. aureus; Table 3, S. aureus ATCC 33591, Exp. #2): ≦0.125 μg/ml | MIC (S. aureus; Table 3, S. aureus ATCC 33592, Exp. #1): ≦0.125 μg/ml | MIC (S. aureus; Table 3, S. aureus ATCC 33592, Exp. #2): ≦0.125 μg/ml | MIC (S. aureus; Table 3, S. aureus ATCC 33593, Exp. #1): ≦0.125 μg/ml | MIC (S. aureus; Table 3, S. aureus ATCC 33593, Exp. #2): ≦0.125 μg/ml | MIC (S. aureus; Table 3, S. aureus ATCC 43300, Exp. #1): ≦0.125 μg/ml | MIC (S. aureus; Table 3, S. aureus ATCC 43300, Exp. #2): ≦0.125 μg/ml | MIC (S. aureus; Table 3, S. aureus ATCC 700260, Exp. #1): ≦0.125 μg/ml | MIC (S. aureus; Table 3, S. aureus ATCC 700260, Exp. #2): ≦0.125 μg/ml | MIC (S. aureus; Table 3, S. aureus ATCC 700698, Exp. #1): ≦0.125 μg/ml | MIC (S. aureus; Table 3, S. aureus ATCC 700698, Exp. #2): ≦0.125 μg/ml | MIC (S. aureus; Table 3, S. aureus ATCC 700699, Exp. #1): 16000 ng/mL (≈ 28.5 µM) | MIC (S. aureus; Table 3, S. aureus ATCC 700699, Exp. #2): 8000 ng/mL (≈ 14.2 µM) | MIC (S. aureus; Table 3, S. aureus ATCC 700787, Exp. #1): ≦0.125 μg/ml | MIC (S. aureus; Table 3, S. aureus ATCC 700787, Exp. #2): ≦0.125 μg/ml | MIC (S. aureus; Table 3, S. aureus ATCC 700788, Exp. #1): ≦0.125 μg/ml | MIC (S. aureus; Table 3, S. aureus ATCC 700788, Exp. #2): ≦0.125 μg/ml | MIC (S. aureus; Table 3, S. aureus ATCC 700789, Exp. #1): ≦0.125 μg/ml | MIC (S. aureus; Table 3, S. aureus ATCC 700789, Exp. #2): ≦0.125 μg/ml | MIC (S. aureus; Table 4, MRSA ATCC 700699, Exp. #1): 32000 ng/mL (≈ 56.9 µM) | MIC (S. aureus; Table 4, MRSA ATCC 700699, Exp. #2): 32000 ng/mL (≈ 56.9 µM) | MIC (S. aureus; Table 4, MSSA ATCC 11632, Exp. #1): 32000 ng/mL (≈ 56.9 µM) | MIC (S. aureus; Table 4, MSSA ATCC 11632, Exp. #2): 16000 ng/mL (≈ 28.5 µM) | MIC (S. aureus; Table 4, MSSA ATCC 33594, Exp. #1): ≦0.125 μg/ml | MIC (S. aureus; Table 4, MSSA ATCC 33594, Exp. #2): ≦0.125 μg/ml | MIC (S. aureus; Table 4, MSSA ATCC 700260, Exp. #1): ≦0.125 μg/ml | MIC (S. aureus; Table 4, MSSA ATCC 700260, Exp. #2): 4000 ng/mL (≈ 7.12 µM) | MIC (S. aureus; Table 5, MSSA ATCC 11632): 0.977 ng/mL (≈ 0.00174 µM) | MIC (S. aureus; Table 5, MSSA ATCC 13301): 0.015 ng/mL (≈ 2.67e-05 µM) | MIC (S. aureus; Table 5, MSSA ATCC 14154): 0.977 ng/mL (≈ 0.00174 µM) | MIC (S. aureus; Table 5, MSSA ATCC 33591): 15.63 ng/mL (≈ 0.0278 µM) | MIC (S. aureus; Table 5, MSSA ATCC 33592): 0.488 ng/mL (≈ 0.000868 µM) | MIC (S. aureus; Table 5, MSSA ATCC 33593): 0.488 ng/mL (≈ 0.000868 µM) | MIC (S. aureus; Table 5, MSSA ATCC 43300): 0.977 ng/mL (≈ 0.00174 µM) | MIC (S. aureus; Table 5, MSSA ATCC 700260): 0.031 ng/mL (≈ 5.52e-05 µM) | MIC (S. aureus; Table 5, MSSA ATCC 700698): 3.906 ng/mL (≈ 0.00695 µM) | MIC (S. aureus; Table 5, MSSA ATCC 700699): ≧4 μg/ml | MIC (S. aureus; Table 5, MSSA ATCC 700787): 7.813 ng/mL (≈ 0.0139 µM) | MIC (S. aureus; Table 5, MSSA ATCC 700788): 62.5 ng/mL (≈ 0.111 µM) | MIC (S. aureus; Table 5, MSSA ATCC 700789): 15.63 ng/mL (≈ 0.0278 µM) | MIC (E. faecalis; Table 4, E. faecalis ATCC 49757, Exp. #1): 64 µg/mL (≈ 114 µM) | MIC (E. faecalis; Table 4, E. faecalis ATCC 49757, Exp. #2): 32 µg/mL (≈ 56.9 µM) | MIC (E. faecalis; Table 4, E. faecalis ATCC 700802, Exp. #1): 32 µg/mL (≈ 56.9 µM) | MIC (E. faecalis; Table 4, E. faecalis ATCC 700802, Exp. #2): 32 µg/mL (≈ 56.9 µM) | MIC (E. coli; Exp. #1): 16 µg/mL (≈ 28.5 µM) | MIC (E. coli; Exp. #2): 16 µg/mL (≈ 28.5 µM) | MIC (M. catarrhalis; Table 3, M. catarrhalis ATCC 43627, Exp. #1): ≦0.125 μg/ml | MIC (M. catarrhalis; Table 3, M. catarrhalis ATCC 43627, Exp. #2): ≦0.125 μg/ml | MIC (M. catarrhalis; Table 3, M. catarrhalis ATCC 43628, Exp. #1): ≦0.125 μg/ml | MIC (M. catarrhalis; Table 3, M. catarrhalis ATCC 43628, Exp. #2): ≦0.125 μg/ml | MIC (M. catarrhalis; Table 3, M. catarrhalis ATCC 49265, Exp. #1): ≦0.125 μg/ml | MIC (M. catarrhalis; Table 3, M. catarrhalis ATCC 49265, Exp. #2): ≦0.125 μg/ml | MIC (M. catarrhalis; Table 3, M. catarrhalis ATCC 51584, Exp. #1): ≦0.125 μg/ml | MIC (M. catarrhalis; Table 3, M. catarrhalis ATCC 51584, Exp. #2): ≦0.125 μg/ml | MIC (H. influenzae; Table 4, H. influenzae ATCC 33533, Exp. #1): 64 µg/mL (≈ 114 µM) | MIC (H. influenzae; Table 4, H. influenzae ATCC 33533, Exp. #2): ≧64 μg/ml | MIC (K. pneumoniae; Table 3, K. pneumoniae ATCC 51503, Exp. #1): 8 µg/mL (≈ 14.2 µM) | MIC (K. pneumoniae; Table 3, K. pneumoniae ATCC 51503, Exp. #2): 8 µg/mL (≈ 14.2 µM) | MIC (K. pneumoniae; Table 3, K. pneumoniae ATCC 51504, Exp. #1): 1 µg/mL (≈ 1.78 µM) | MIC (K. pneumoniae; Table 3, K. pneumoniae ATCC 51504, Exp. #2): 2 µg/mL (≈ 3.56 µM) | MIC (K. pneumoniae; Table 3, K. pneumoniae ATCC 700721, Exp. #1): 2 µg/mL (≈ 3.56 µM) | MIC (K. pneumoniae; Table 3, K. pneumoniae ATCC 700721, Exp. #2): 2 µg/mL (≈ 3.56 µM) | MIC (K. pneumoniae; Table 4, K. pneumoniae ATCC 51503, Exp. #1): 4 µg/mL (≈ 7.12 µM) | MIC (K. pneumoniae; Table 4, K. pneumoniae ATCC 51503, Exp. #2): 8 µg/mL (≈ 14.2 µM) | MIC (K. pneumoniae; Table 4, K. pneumoniae ATCC 700721, Exp. #1): 4 µg/mL (≈ 7.12 µM) | MIC (K. pneumoniae; Table 4, K. pneumoniae ATCC 700721, Exp. #2): 8 µg/mL (≈ 14.2 µM) | MIC (E. cloacae; Table 3, E. cloacae ATCC 23355, Exp. #1): 0.5 µg/mL (≈ 0.89 µM) | MIC (E. cloacae; Table 3, E. cloacae ATCC 23355, Exp. #2): 0.5 µg/mL (≈ 0.89 µM) | MIC (E. cloacae; Table 4, E. cloacae ATCC 23355, Exp. #1): 16 µg/mL (≈ 28.5 µM) | MIC (E. cloacae; Table 4, E. cloacae ATCC 23355, Exp. #2): 1 µg/mL (≈ 1.78 µM) | MIC (E. aerogenes; Table 3, E. aerogenes ATCC 13048, Exp. #1): 1 µg/mL (≈ 1.78 µM) | MIC (E. aerogenes; Table 3, E. aerogenes ATCC 13048, Exp. #2): 1 µg/mL (≈ 1.78 µM) | MIC (E. aerogenes; Table 3, E. aerogenes ATCC 29009, Exp. #1): 0.25 µg/mL (≈ 0.445 µM) | MIC (E. aerogenes; Table 3, E. aerogenes ATCC 29009, Exp. #2): ≦0.125 μg/ml | MIC (E. aerogenes; Table 3, E. aerogenes ATCC 29751, Exp. #1): 2 µg/mL (≈ 3.56 µM) | MIC (E. aerogenes; Table 3, E. aerogenes ATCC 29751, Exp. #2): 1 µg/mL (≈ 1.78 µM) | MIC (E. aerogenes; Table 3, E. aerogenes ATCC 35028, Exp. #1): 4 µg/mL (≈ 7.12 µM) | MIC (E. aerogenes; Table 3, E. aerogenes ATCC 35028, Exp. #2): 2 µg/mL (≈ 3.56 µM) | MIC (E. aerogenes; Table 4, E. aerogenes ATCC 35028, Exp. #1): 32 µg/mL (≈ 56.9 µM) | MIC (E. aerogenes; Table 4, E. aerogenes ATCC 35028, Exp. #2): 16 µg/mL (≈ 28.5 µM) | IC50 (Mammalian cells): ~30 µM | MIC (E. coli/Tem-1; Exp. #1): 16 µg/mL (≈ 28.5 µM) | MIC (E. coli/Tem-1; Exp. #2): 16 µg/mL (≈ 28.5 µM)
